# Experimental data published in PubChem BioAssay AID248 (DTP/NCI, 2004).
# Several values for one entry are separate records, joined by “and”; a condition that tells them apart may be missing. Identical values can stand only once. Toxic doses and inconclusive results are not listed.
# System: L1210 leukemia ip in BDF1 mice, survival T/C
# Experiment: NCI In Vivo Anticancer Drug Screen. Data for tumor model L1210 Leukemia (intraperitoneal) in B6D2F1 (BDF1) mice
# Settings: endpoint: mean survival time, higher = longer survival
# Procedure, shortened: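 Read-out is survival time, reported as the treated-group measurement over the vehicle-control measurement.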
compound,measurement,setting,value
O=C(Nc1ccc(C2=NCCCN2)cc1)c1ccc(NC(=O)c2ccc(C3=NCCCN3)cc2)cc1,T/C,"dose: 0.03 mg/kg/injection, schedule: Q01DX Z (iv), vehicle: water",107 % of control
same,T/C,"dose: 0.06 mg/kg/injection, schedule: Q01DX Z (iv), vehicle: water",102 % of control
same,T/C,"dose: 0.12 mg/kg/injection, schedule: Q01DX Z (ip), vehicle: carboxymethylcellulose (CMC)",102 % of control
same,T/C,"dose: 0.12 mg/kg/injection, schedule: Q01DX Z (iv), vehicle: water",113 % of control
same,T/C,"dose: 0.2 mg/kg/injection, schedule: Q01DX006 (iv), vehicle: carboxymethylcellulose (CMC)",119 % of control
same,T/C,"dose: 0.25 mg/kg/injection, schedule: Q01DX Z (ip), vehicle: carboxymethylcellulose (CMC)",103 % of control
same,T/C,"dose: 0.25 mg/kg/injection, schedule: Q01DX Z (iv), vehicle: water",94 % of control
same,T/C,"dose: 0.4 mg/kg/injection, schedule: Q01DX006 (iv), vehicle: carboxymethylcellulose (CMC)",113 % of control
same,T/C,"dose: 0.5 mg/kg/injection, schedule: Q01DX Z (ip), vehicle: carboxymethylcellulose (CMC)",107 % of control
same,T/C,"dose: 0.5 mg/kg/injection, schedule: Q01DX Z (sc), vehicle: saline",108 % of control
same,T/C,"dose: 0.6 mg/kg/injection, schedule: Q01DX006 (iv), vehicle: carboxymethylcellulose (CMC)",120 % of control
same,T/C,"dose: 0.8 mg/kg/injection, schedule: Q01DX006 (iv), vehicle: carboxymethylcellulose (CMC)",111 % of control
same,T/C,"dose: 0.94 mg/kg/injection, schedule: Q01DX Z (ip), vehicle: saline",120 % of control
same,T/C,"dose: 1.0 mg/kg/injection, schedule: Q01DX Z (sc), vehicle: saline",110 % of control
same,T/C,"dose: 1.76 mg/kg/injection, schedule: Q01DX015 (ip), vehicle: carboxymethylcellulose (CMC)",154 % of control
same,T/C,"dose: 2.0 mg/kg/injection, schedule: Q01DX010 (ip), vehicle: other",160 % of control and 162 % of control
same,T/C,"dose: 2.0 mg/kg/injection, schedule: Q01DX Z (sc), vehicle: saline",110 % of control
same,T/C,"dose: 2.6 mg/kg/injection, schedule: Q01DX015 (ip), vehicle: carboxymethylcellulose (CMC)",230 % of control
same,T/C,"dose: 3.75 mg/kg/injection, schedule: Q01DX Z (ip), vehicle: saline",245 % of control
same,T/C,"dose: 4.0 mg/kg/injection, schedule: Q01DX010 (ip), vehicle: other",215 % of control and 217 % of control and 251 % of control
same,T/C,"dose: 4.0 mg/kg/injection, schedule: Q01DX015 (ip), vehicle: carboxymethylcellulose (CMC)",305 % of control
same,T/C,"dose: 4.0 mg/kg/injection, schedule: Q01DX Z (sc), vehicle: saline",156 % of control and 195 % of control
same,T/C,"dose: 6.0 mg/kg/injection, schedule: Q01DX015 (ip), vehicle: carboxymethylcellulose (CMC)",319 % of control
same,T/C,"dose: 8.0 mg/kg/injection, schedule: Q01DX010 (ip), vehicle: other",245 % of control and 258 % of control and 345 % of control
same,T/C,"dose: 8.0 mg/kg/injection, schedule: Q01DX Z (sc), vehicle: saline",259 % of control
same,T/C,"dose: 9.0 mg/kg/injection, schedule: Q01DX015 (ip), vehicle: carboxymethylcellulose (CMC)",180 % of control
same,T/C,"dose: 10.0 mg/kg/injection, schedule: Q01DX010 (sc), vehicle: saline",106 % of control
same,T/C,"dose: 10.0 mg/kg/injection, schedule: Q02DX004 (im), vehicle: olive oil, sesame oil, peanut oil",154 % of control and 178 % of control
same,T/C,"dose: 14.0 mg/kg/injection, schedule: Q01DX001 (ip), vehicle: other",156 % of control
same,T/C,"dose: 16.0 mg/kg/injection, schedule: Q01DX010 (ip), vehicle: other",97 % of control and 98 % of control and 100 % of control
same,T/C,"dose: 16.0 mg/kg/injection, schedule: Q01DX Z (sc), vehicle: carboxymethylcellulose (CMC)",102 % of control
same,T/C,"dose: 16.0 mg/kg/injection, schedule: Q01DX Z (sc), vehicle: saline",124 % of control
same,T/C,"dose: 20.0 mg/kg/injection, schedule: Q01DX001 (im), vehicle: steriod suspending solution",110 % of control
same,T/C,"dose: 20.0 mg/kg/injection, schedule: Q01DX010 (sc), vehicle: olive oil, sesame oil, peanut oil",87 % of control
same,T/C,"dose: 20.0 mg/kg/injection, schedule: Q01DX010 (sc), vehicle: saline",87 % of control
same,T/C,"dose: 20.0 mg/kg/injection, schedule: Q02DX004 (im), vehicle: olive oil, sesame oil, peanut oil",250 % of control and 285 % of control
same,T/C,"dose: 21.0 mg/kg/injection, schedule: Q01DX001 (ip), vehicle: carboxymethylcellulose (CMC)",156 % of control
same,T/C,"dose: 21.0 mg/kg/injection, schedule: Q01DX001 (ip), vehicle: saline",159 % of control and 172 % of control
same,T/C,"dose: 32.0 mg/kg/injection, schedule: Q01DX001 (ip), vehicle: carboxymethylcellulose (CMC)",172 % of control
same,T/C,"dose: 32.0 mg/kg/injection, schedule: Q01DX001 (ip), vehicle: other",202 % of control
same,T/C,"dose: 32.0 mg/kg/injection, schedule: Q01DX001 (ip), vehicle: saline",196 % of control
same,T/C,"dose: 40.0 mg/kg/injection, schedule: Q01DX001 (im), vehicle: steriod suspending solution",173 % of control
same,T/C,"dose: 40.0 mg/kg/injection, schedule: Q02DX004 (im), vehicle: olive oil, sesame oil, peanut oil",100 % of control and 86 % of control
same,T/C,"dose: 48.0 mg/kg/injection, schedule: Q01DX001 (ip), vehicle: carboxymethylcellulose (CMC)",219 % of control
same,T/C,"dose: 48.0 mg/kg/injection, schedule: Q01DX001 (ip), vehicle: saline",243 % of control and 247 % of control
same,T/C,"dose: 62.0 mg/kg/injection, schedule: Q01DX Z (oral), vehicle: carboxymethylcellulose (CMC)",102 % of control
same,T/C,"dose: 62.5 mg/kg/injection, schedule: Q01DX010 (oral), vehicle: other",105 % of control
same,T/C,"dose: 72.0 mg/kg/injection, schedule: Q01DX001 (ip), vehicle: saline",103 % of control and 229 % of control
same,T/C,"dose: 90.0 mg/kg/injection, schedule: Q#A X Z (oral), vehicle: carboxymethylcellulose (CMC)",100 % of control
same,T/C,"dose: 125.0 mg/kg/injection, schedule: Q01DX010 (oral), vehicle: other",177 % of control
same,T/C,"dose: 125.0 mg/kg/injection, schedule: Q01DX Z (oral), vehicle: carboxymethylcellulose (CMC)",105 % of control
same,T/C,"dose: 125.0 mg/kg/injection, schedule: Q01DX Z (oral), vehicle: saline",92 % of control
same,T/C,"dose: 135.0 mg/kg/injection, schedule: Q#A X Z (oral), vehicle: carboxymethylcellulose (CMC)",91 % of control
same,T/C,"dose: 180.0 mg/kg/injection, schedule: Q01DX Z (oral), vehicle: carboxymethylcellulose (CMC)",108 % of control
same,T/C,"dose: 202.5 mg/kg/injection, schedule: Q#A X Z (oral), vehicle: carboxymethylcellulose (CMC)",115 % of control
same,T/C,"dose: 250.0 mg/kg/injection, schedule: Q01DX010 (oral), vehicle: other",194 % of control
same,T/C,"dose: 250.0 mg/kg/injection, schedule: Q01DX Z (oral), vehicle: carboxymethylcellulose (CMC)",120 % of control
same,T/C,"dose: 250.0 mg/kg/injection, schedule: Q01DX Z (oral), vehicle: saline",89 % of control
same,T/C,"dose: 270.0 mg/kg/injection, schedule: Q01DX Z (oral), vehicle: carboxymethylcellulose (CMC)",102 % of control
same,T/C,"dose: 405.0 mg/kg/injection, schedule: Q01DX Z (oral), vehicle: carboxymethylcellulose (CMC)",120 % of control
same,T/C,"dose: 500.0 mg/kg/injection, schedule: Q01DX010 (oral), vehicle: other",122 % of control
same,T/C,"dose: 500.0 mg/kg/injection, schedule: Q01DX Z (oral), vehicle: saline",113 % of control
same,T/C,"dose: 540.0 mg/kg/injection, schedule: Q03DX Z (oral), vehicle: carboxymethylcellulose (CMC)",98 % of control
same,T/C,"dose: 800.0 mg/kg/injection, schedule: Q03DX Z (oral), vehicle: carboxymethylcellulose (CMC)",112 % of control
same,T/C,"dose: 1200.0 mg/kg/injection, schedule: Q03DX Z (oral), vehicle: carboxymethylcellulose (CMC)",120 % of control
same,T/C,"dose: 1200.0 mg/kg/injection, schedule: Q07DX Z (oral), vehicle: carboxymethylcellulose (CMC)",95 % of control
same,T/C,"dose: 1800.0 mg/kg/injection, schedule: Q07DX Z (oral), vehicle: carboxymethylcellulose (CMC)",106 % of control
same,T/C,"dose: 2700.0 mg/kg/injection, schedule: Q07DX Z (oral), vehicle: carboxymethylcellulose (CMC)",124 % of control
